Test results published in patent publication US9963712B2, “Gene IbENOD93 and transgenic plants using the same” (Korea University Research and Business Foundation, priority 2014, dated 2018).

Tests used:
[1] = tested on: MADS-box genes (SRD1, IbMADS1); details: upon IAA or JA treatment; Noh et al. 2010, Ku et al. 2008; cited from earlier work
IbENOD93 gene = test: Regulation of IbENOD93 expression by plant hormone treatment (real-time PCR); type: in vivo, sweet potato; details: 3 hours, fibrous roots of single-leaf plantlets, 25° C., dark
Method: To determine the transcriptional regulation of IbENOD93 gene by treatment with auxin (Indole-3-acetic acid; IAA), jasmonic acid (JA), and […] (6-benzylaminopurine; BA), real-time PCR (RT-PCR) was performed using IbENOD93-specific primers (IbENOD93(360)F 5′-[…]-3′ (SEQ ID. NO.: 9) and IbENOD93(512)R 5′-[…]-3′ (SEQ ID. NO.: 10)).
The roots of sweet potato were treated with hormones according to the following method. Sweet potato plantlets bearing a single leaf and petiole were collected from sweet potato plants and incubated in flasks filled with water for 3 weeks. After fibrous roots had developed from the distal end of the petiole, the single-leaf plantlets were incubated in various concentrations of IAA, JA, and BA solutions (0, 50, 100, 200, 500, 1000 μM) at 25° C. in the dark for 3 hours. After the hormone treatment, total RNA was extracted from the fibrous roots using the RNeasy Plant Mini Kit™ (Qiagen) and used for RT-PCR.
Total RNA (5 μg) was used for first-strand cDNA synthesis using the SuperScript III first-strand cDNA synthesis kit (Invitrogen). The resulting cDNA solution was then diluted with 30 μl of TE and used for PCR. Among a total of 20 μl, 1 μl of the synthesized cDNA was used for the RT-PCR, and KAPA SYBR FAST Master mix (KAPABIOSYSTEMS) was used for a final reaction volume of 16 μl. Real-time PCR analysis was performed using the LightCycler 480 quantification system (Roche Diagnostics) according to the manufacturer's instructions. Expression levels were normalized with β-tubulin expression amplified with 5′-[…]-3′ (SEQ ID. NO.: 11) and 5′-[…]-3′ (SEQ ID. NO.: 12) primers. Real-time PCR was performed starting with pre-denaturation at 95° C. for 10 minutes, followed by 45 cycles of denaturation at 95° C. for 10 seconds, annealing at 58° C. for 10 seconds, and extension at 72° C. for 20 seconds. Following the amplification phase, a melting curve analysis was conducted from 65° C. to 97° C. The second derivative maximum method in the LightCycler 480 quantification software (Roche Diagnostics) was used to evaluate the data.

Row | Compound | transcript level of MADS-box genes (SRD1, IbMADS1) [1] | transcript level of IbENOD93 (IbENOD93 gene; 500 μM IAA) | transcript level of IbENOD93 (IbENOD93 gene; 200 μM JA) | transcript level of IbENOD93 (IbENOD93 gene; BA at 100 μM or higher)
1 | O=C(O)Cc1c[nH]c2ccccc12 [IAA, Indole-3-acetic acid] | increased sharply | increased sharply | – | –
2 | CC/C=C\C[C@H]1C(=O)CC[C@@H]1CC(=O)O [JA, jasmonic acid] | increased sharply | – | increased sharply | –
3 | c1ccc(CNc2ncnc3nc[nH]c23)cc1 [BA, 6-benzylaminopurine] | – | – | – | increased slightly
